Measurements reported in ChEMBL document CHEMBL1781976, “Synthesis of 7,9-diazabicyclo[4.2.2]decanes as conformationally restricted κ receptor agonists: fine tuning of the dihedral angle of the ethylenediamine pharmacophore” (Eur J Med Chem, 2011).

What was measured:
[1] = target: Kappa-type opioid receptor (Homo sapiens, UniProt P41145); assay: Displacement of [3H]U69593 from kappa opioid receptor
[2] = target: Delta-type opioid receptor (Rattus norvegicus, UniProt P33533); assay: Displacement of [3H]DPDPE from delta opioid receptor in rat brain membranes; assay type: cell membranes
[3] = target: Kappa-type opioid receptor (Cavia porcellus, UniProt P41144); assay: Displacement of [3H]U69593 from kappa opioid receptor in guinea pig brain membranes after 150 mins by scintillation counting; assay type: cell membranes, Membrane
Mu-type opioid receptor = Mu-type opioid receptor (Cavia porcellus, UniProt P97266); assay: Displacement of [3H]DAMGO from mu opioid receptor in guinea pig brain membranes; assay type: cell membranes, Membrane
[4] = target: Sigma non-opioid intracellular receptor 1 (Cavia porcellus, UniProt Q60492); assay: Displacement of [3H]-(+)-pentazocine from sigma 1 receptor in guinea pig brain membranes; assay type: cell membranes, Membrane
[5] = Displacement of [3H]di-o-toylguanidine from sigma 2 receptor in rat liver homogenates; assay type: tissue-based

Sequence of Kappa-type opioid receptor (Cavia porcellus, UniProt P41144) (P41144 whole entry): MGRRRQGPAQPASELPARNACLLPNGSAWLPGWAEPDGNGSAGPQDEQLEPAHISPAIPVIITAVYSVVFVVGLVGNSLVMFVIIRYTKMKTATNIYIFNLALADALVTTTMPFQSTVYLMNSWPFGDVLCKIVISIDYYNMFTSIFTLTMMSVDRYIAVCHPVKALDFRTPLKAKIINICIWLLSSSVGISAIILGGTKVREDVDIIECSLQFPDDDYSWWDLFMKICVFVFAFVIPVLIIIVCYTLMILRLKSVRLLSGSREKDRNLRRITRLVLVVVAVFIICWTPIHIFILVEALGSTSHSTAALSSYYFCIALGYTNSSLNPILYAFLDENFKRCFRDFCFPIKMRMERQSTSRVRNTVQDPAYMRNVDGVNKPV
Sequence of Mu-type opioid receptor (P97266 whole entry): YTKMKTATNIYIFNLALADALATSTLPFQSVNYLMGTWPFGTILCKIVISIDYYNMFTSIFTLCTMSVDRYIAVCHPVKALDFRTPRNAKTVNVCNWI
Sequence of Sigma non-opioid intracellular receptor 1 (Q60492 whole entry): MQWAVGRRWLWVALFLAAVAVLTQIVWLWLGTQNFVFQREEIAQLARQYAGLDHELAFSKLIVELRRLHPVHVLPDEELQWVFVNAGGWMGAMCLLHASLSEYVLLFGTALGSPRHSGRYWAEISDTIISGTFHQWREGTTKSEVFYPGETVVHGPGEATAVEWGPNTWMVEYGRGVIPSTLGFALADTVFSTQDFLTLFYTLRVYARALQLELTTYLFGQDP
Sequence of Delta-type opioid receptor (P33533 whole entry): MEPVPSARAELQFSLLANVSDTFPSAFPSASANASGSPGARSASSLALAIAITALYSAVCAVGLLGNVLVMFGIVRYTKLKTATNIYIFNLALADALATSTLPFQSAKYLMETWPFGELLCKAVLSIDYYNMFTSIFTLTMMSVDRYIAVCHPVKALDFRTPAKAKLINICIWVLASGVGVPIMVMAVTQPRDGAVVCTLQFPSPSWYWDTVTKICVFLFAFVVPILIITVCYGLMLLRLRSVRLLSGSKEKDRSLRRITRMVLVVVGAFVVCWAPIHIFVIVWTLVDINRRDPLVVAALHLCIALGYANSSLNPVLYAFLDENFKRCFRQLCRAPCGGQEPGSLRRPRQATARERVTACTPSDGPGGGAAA
Sequence of Kappa-type opioid receptor (Homo sapiens, UniProt P41145) (P41145 whole entry): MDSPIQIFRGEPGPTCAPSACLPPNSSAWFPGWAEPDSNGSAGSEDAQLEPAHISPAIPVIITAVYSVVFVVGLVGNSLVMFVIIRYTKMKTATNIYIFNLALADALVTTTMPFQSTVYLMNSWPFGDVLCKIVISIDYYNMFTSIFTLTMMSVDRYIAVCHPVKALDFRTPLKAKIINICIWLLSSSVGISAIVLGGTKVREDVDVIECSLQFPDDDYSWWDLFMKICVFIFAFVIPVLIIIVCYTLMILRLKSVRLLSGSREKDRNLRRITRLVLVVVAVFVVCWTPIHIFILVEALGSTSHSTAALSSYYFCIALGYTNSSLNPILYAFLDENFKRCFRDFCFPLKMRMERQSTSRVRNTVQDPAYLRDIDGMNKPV

COC(=O)N1CCN(C(=O)Cc2ccc(Cl)c(Cl)c2)[C@@H]([C@@H](C)N2CCCC2)C1
Ki [1]: 0.31 nM

COC(=O)N1CCN(C(=O)Cc2ccc(Cl)c(Cl)c2)[C@H](CN2CCCC2)C1
Ki [1]: 0.45 nM

COC(=O)N1CC2C(N3CCCC3)CCCC1CN2C(=O)Cc1ccc(Cl)c(Cl)c1 (racemic)
Ki [2]: > 1000 nM | Ki [3]: 333 nM | Ki (Mu-type opioid receptor): > 1000 nM | Ki [4]: 452 nM

COc1ccc(CN2CC3CCCC(N4CCCC4)C2CN3Cc2ccccc2)cc1 (racemic)
Ki [5]: > 1000 nM | Ki [4]: 531 nM

O=C(Cc1ccc(Cl)c(Cl)c1)N1CC2CCCC(N3CCCC3)C1CN2Cc1ccccc1 (racemic; 14)
Ki [2]: 150 nM | Ki [3]: 378 nM | Ki [5]: > 1000 nM | Ki (Mu-type opioid receptor): > 1000 nM | Ki [4]: 221 nM

O=C(Cc1ccc(Cl)c(Cl)c1)N1CC2CCCC(N3CCCC3)C1CN2Cc1ccccc1 (racemic; 26)
Ki [2]: 324 nM | Ki [3]: 314 nM | Ki (Mu-type opioid receptor): > 1000 nM | Ki [4]: 175 nM

O=C(Cc1ccc(Cl)c(Cl)c1)N1CCN2CC[C@@H](N3CCCC3)[C@H]1C2 (relative stereo)
Ki [3]: > 1000 nM

O=C(Cc1ccc(Cl)c(Cl)c1)N1CCN2CC[C@H](N3CCCC3)[C@H]1C2 (relative stereo)
Ki [3]: 73 nM

COC(=O)N1CC2C(N3CCCC3)CCCC1CN2C(=O)Cc1ccc(Cl)c(Cl)c1 (stereo in doubt; 9)
Ki [2]: > 1000 nM | Ki [3]: 65 nM | Ki [5]: > 1000 nM | Ki (Mu-type opioid receptor): > 1000 nM | Ki [4]: > 1000 nM

COc1ccc(CN2CC3CCCC(N4CCCC4)C2CN3Cc2ccccc2)cc1 (stereo in doubt; 25)
Ki [5]: 203 nM | Ki [4]: 238 nM

CC(C)=CCN1CC[C@]2(C)c3cc(O)ccc3C[C@H]1[C@H]2C [(+)-PENTAZOCINE]
Ki [5]: 58 nM
